# Experimental data: patent publication US20260337229A1 (Seattle Children's Hospital (d/b/a Seattle Children's …, priority 2022, published 2026)
# Where two headings read alike, the source gives them in different places. Residues, ends and D or L forms follow the SMILES beside them.
# Legend:
# [1] = in words; cited from earlier work
# [2] = Dose escalation study in DIO rats; format: in vivo, male DIO Sprague Dawley rats
# Source text: Male DIO Sprague Dawley rats (n=4) were fed 60% HF diet (formula: D12492; Research Diets, Inc., New Brunswick, NJ, USA; 5.21 kcal/g) for 16 weeks prior to the start of the study. Rats were changed to being singly housed and allowed to acclimate for at least one week prior to the start of this study. Animals averaged 844.15 Z 99.95 g at baseline. Baseline measures of body weight, food intake, and water intake were taken for 6 days before drug administration began. Doses for the dose escalation study included 1, 2, 5, 10, 20, 50, and 100 nmol/kg. Body weight, food and water intake were assessed just prior to the start of the dark cycle. […] In certain embodiments, the greatest anorectic effect achieved with ASK1476 occurred at the 300 nmol/kg/d dose yielding a ~34% reduction in caloric intake while ASK2131 dosed at 2 nmol/kg/d yielded a ~55% reduction in caloric intake.
# [3] = tested on: amygdala activation; settings: 24 IU, but not lower (12 IU) or higher (48 IU) doses; in words; cited from earlier work
# [4] = iv, rat; marked [2]; cited from earlier work
# [5] = peripheral administration; in words; cited from earlier work
# [6] = intranasal; in words; cited from earlier work
# [7] = sc, mouse, marked [2], cited from earlier work
# [8] = Blood parameters after 22-day treatment of DIO rats; format: in vivo, male Sprague Dawley rats; settings: 22 days sc, mean ± SEM, OXT n=4
# Source text: (§1) Male Sprague Dawley rats were fed 60% HF diet (D12492; Research Diets, Inc; New Brunswick, NJ; 5.21 kcal/g) for 16 weeks prior to the start of the study. Rats were then singly house in BioDAQ cages (Research Diets, Inc.; New Brunswick, NJ) and allowed to acclimate to their new environment for 10 days. Baseline measures of body weight, food intake and water intake were taken for one week to balance the groups and create feeding pairs. Each group (n=6 animals/group) averaged 714.47±81.6 g at baseline (Table 3).
# (§2) Effects of ASK2131 were compared to a vehicle-treated group, OXT-treated group, as well as a pair-fed control group. Three days of baseline measures were taken before subcutaneous treatment administration began on day 4 of the study. Assessments were made to body weight, food intake and water intake. ASK2131 was administered at 50 nmol/kg throughout the entire study period. […] OXT-treated animals were started at 50 nmol/kg dose for two days, followed by 150 nmol/kg, then 300 nmol/kg, until ending at 600 nmol/kg for the remainder of the study.
# Cardiac puncture was used to collect blood for analysis 2 h post final injection. Commercially available enzyme-linked immunosorbent assays (ELISA) were used for quantitative assessment of leptin (cat. #EZRL-83K; MilliporeSigma, Burlington, MA, USA), insulin (cat. #EZRMI-13K; MilliporeSigma, Burlington, MA, USA), and adiponectin (cat. #EZRAPD-62K MilliporeSigma, Burlington, MA, USA). Serum samples were diluted 1:500 for the adiponectin ELISA using the sample diluent provided with the kit. All ELISAs were completed following the manufacturers recommendations. Levels of glucose, cholesterol (total, HDL, and calculated LDL), triglycerides, ALT, and AST were determined in the serum on a Modular P chemistry analyzer (Roche Diagnostics, Risch-Rotkreuz, Switzerland) by the University of Washington Nutrition and Obesity Research Center's Analytic Core (Seattle, WA, USA).
# [9] = 22-day long-term study in DIO rats (body weight, food and water intake); format: in vivo, male Sprague Dawley rats
# Source text: For studies utilizing a DIO rat model, male Sprague Dawley rats (CD-IGS rats, strain 001; approximately 4 weeks of age; 51-75 g) purchased from Charles River Laboratories (Wilmington, MA, USA). These rats were fed a diet of 60% calories from fat (Formula: D12492; Research Diets, Inc., New Brunswick, NJ, USA; 5.21 kcal/g) for 4.5 to 6 months prior to the start of the study to induce obesity. For studies utilizing lean rats, male Sprague Dawley rats (CD-IGS rats, strain 001; 226-250 g) purchased from Charles River Laboratories (Wilmington, MA, USA). All rats had ad libitum access to food and water and were kept on a 12 h light/12 h dark cycle. Animals were individually housed in a temperature (22±1° C.) and humidity (57±4%) controlled room. All body weight measurements were taken just prior to the start of the dark cycle.
# as §1, §2
# [10] = cited from earlier work
# [11] = in words; cited from earlier work; remark: listed apart in the source
# [12] = tested on: OXT receptors; settings: prolonged OXT treatment, in words, cited from earlier work
# [13] = cited from earlier work; remark: listed apart in the source
# [14] = ELISA, 2 h post final injection
structure (smiles),measurement,setting,value
"CCCCCCCCCCCCCCCC(=O)NCCOCCOCCOCCOCCOCCOCCOCCOCCC(=O)NCCCC[C@H](NC(=O)CNC(=O)[C@@H]1CSSC[C@H](N)C(=O)N[C@@H](Cc2ccc(O)cc2)C(=O)N[C@@H]([C@@H](C)CC)C(=O)N[C@@H](CCC(N)=O)C(=O)N[C@@H](CC(N)=O)C(=O)N1)C(=O)NCC(N)=O [ASK1476] (HELM PEPTIDE1{C.Y.I.Q.N.C.G.K.G.[am]}|PEPTIDE2{[CCCCCCCCCCCCCCCC(=O)[*:2]].[O=C(CCOCCOCCOCCOCCOCCOCCOCCOCCN[*:1])[*:2]]}$PEPTIDE1,PEPTIDE2,8:R3-2:R2|PEPTIDE1,PEPTIDE1,1:R3-6:R3$$$V2.0)",response in a prior study,[1],U-shaped response
same,"reduction in caloric intake, greatest anorectic effect",[2]; 300 nmol/kg/d,~ 34%
CC[C@H](C)[C@@H]1NC(=O)[C@H](Cc2ccc(O)cc2)NC(=O)[C@@H](N)CSSC[C@@H](C(=O)N2CCC[C@H]2C(=O)N[C@@H](CC(C)C)C(=O)NCC(N)=O)NC(=O)[C@H](CC(N)=O)NC(=O)[C@H](CCC(N)=O)NC1=O [OXT],amygdala activation,[3],significant decrease in amygdala activation
same,CLplasma,[4],17.1 mL/min/kg
same,T1/2,[4],7.2 min
same,Vd,[4],0.085 L/kg
same,"food intake, energy expenditure, weight gain",[5],"reduces food intake, enhances energy expenditure, and prevents or reduces weight gain"
same,"reduction in caloric intake, maximum effect",[2]; 1200 nmol/kg/d,~ 36%
same,body weight in obese humans,[6],shown to reduce body weight in obese humans
same,dose response in human trials,[6],U-shaped response
same,T1/2,[7],30 min
same,Tmax,[7],15 min
same,free Cmax,[7],191 nM
same,Cmax,[7]; total,216 nM
same,"LDL, calculated",[8]; Calculated LDL = Cholesterol − (HDL + Triglycerides/5),22 ± 2 mg/dL
same,Adiponectin,[8]; [14],60.8 ± 3.9 ng/mL
same,Insulin,[8]; [14],7.2 ± 2.1 ng/mL
same,Leptin,[8]; [14],54.9 ± 7.9 ng/mL
same,ALT,[8]; serum 2 h post final injection,40 ± 5 U/L
same,AST,[8]; serum 2 h post final injection,128 ± 22 U/L
same,Glucose,[8]; serum 2 h post final injection,203 ± 13 mg/dL
same,HDL,[8]; serum 2 h post final injection,25 ± 2 mg/dL
same,Triglycerides,[8]; serum 2 h post final injection,145 ± 7 mg/dL
same,Cholesterol,"[8]; serum 2 h post final injection, superscript b: p<0.01 vs vehicle",76 ± 3 mg/dL
same,Post-treatment body weight,"[9]; 22 days sc, ASK2131 50 nmol/kg, OXT titrated 50 to 600 nmol/kg, mean ± SEM",719 ± 20 g
same,% change in body weight,"[9]; 22 days sc, ASK2131 50 nmol/kg, OXT titrated 50 to 600 nmol/kg, mean ± SEM, superscripts b: p<0.01, c: p<0.001 vs vehicle, d: p<0.001 vs OXT",0.1 ± 1 ^b %
same,reduction in food intake compared to vehicle-treated group,"[9]; OXT titrated to 600 nmol/kg, 95% CI 0.2550 to 40.59, p=0.0464, in words",did not exhibit a significant reduction in food intake
same,weight loss vs. vehicle,"[9]; end of treatment, OXT titrated to 600 nmol/kg",5%
same,"body weight, PMD vs vehicle","[9]; treatment day 9, after 8 days, OXT titrated, 95% CI −5.80 to −0.43%, p=0.014",−3.12%
same,change in body weight,[10]; after a single dose of 1000 μg (1000 nmol),0.01%
same,decrease in food intake,[10]; single injection of 1000 μg (1000 nmol),12%
same,blood-brain barrier passage,[11],does not cross the blood-brain barrier
same,desensitization of the OXT receptors,[12]; in vitro,shown to promote desensitization of the OXT receptors in vitro
same,OXTR binding,[12],reductions of OXTR binding
same,weight loss through energy expenditure,[13]; in words,elicits weight loss through increases in energy expenditure
same,change in body weight,[13]; one month: two weeks at 0.2 mg/kg then two weeks at 0.4 mg/kg,3.3%
